Reference: US20260132420A1, “VIRAL VECTORS FOR NUCLEAR REPROGRAMMING” (Mayor Foundation for Medical Education and Research, priority 2016, published 2026)

What was measured:
BJ cells [1] = assay: Transduction efficiency by GFP expression (microscopy, flow cytometry); assay type: cell-based, human; settings: added at transduction with MV vector, 48 hours
Source text: (§1) To increase transduction efficiency the spinoculation technique was established. To reduce MV-induced toxicity, the MOI of transduction was decreased. BJ cells, a neonatal foreskin human cells were purchased from the American Type Culture Collection (ATCC #CRL 2522), and were transduced with the 4F vector at a MOI of 1 instead of 6 as described elsewhere (Driscoll et al., Stem Cell Research and Therapy 6:48 (2015)). In order to induce TLR3 activation during MV reprogramming, the transduction was performed in presence of polyI:C (a TLR3 activator). Transduced cells were subjected or not to spinoculation at 1000 rpm for 1 hour at room temperature. The culture supernatants were replaced with BJ media every three days. After 9 days, optimized serum-free/feeder-free iPSC medium was added and replaced daily. The cells were monitored until reprogrammed cells form small colonies with iPSC morphology (one to two weeks after vector transduction). Pictures were taken at different stages. iPS-like clones were picked after three to four weeks, and plated at 1 colony/well in Matrigel-coated wells for further expansion. […] The most efficient MOI for each vector was determined.
Transduction efficacy of the vectors was tested at different MOI using light microscopy and flow cytometry and testing for GFP expression. BJ cells were transduced with 4F* at a MOI of 0.5 or 0.25. […]

BJ cells [2] = assay: Reprogramming of BJ human fibroblasts into iPSC-like clones; assay type: cell-based; settings: SB431542 5 μM, PD0325901 0.2 μM, Thiazovivin 0.5 μM together, day 7 to 14
Experimental: Using a reprogramming protocol described elsewhere (Driscoll et al., Stem Cell Research and Therapy 6:48 (2015)), an iPSC-like clone with MV(OCT4)P-ΔH(KLF4) (GFP)H or MV(T) vector in combination with 2 LV encoding SOX2 and cMYC was obtained. The clone obtained with vector MV(T) was analyzed for pluripotency markers (FIGS. 2B and C), for its ability to spontaneously differentiate into the three germ lineages after EB formation (not shown), and its ability to differentiate into contracting cardiomyocytes through guided cardiac differentiation (FIG. 2D).
as §1, with “After 9 days, optimized serum-free/feeder-free iPSC medium was added and replaced daily.” left out, “transduction).” for “transduction). Pictures were taken at different stages. iPS-like clones were picked after three to four weeks, and plated at 1 colony/well in Matrigel-coated wells for further expansion.”
The ability of the MV(OCT4) mir375 to reprogram BJ cells in presence of 3LV expressing SOX2, KLF4, and cMYC was analyzed, and its efficiency was compared to MV(OCT4) and 4LV. […] Using light and fluorescence microscopy, early phases of iPSC-like clone development with MV(OCT4)miR375 were observed (15 days post transduction, FIG. 6B). […] The expression of the N mRNA in the early passages of four iPSC-like clones derived from MV(OCT4)miR375 was analyzed. […] RNA was collected at each passage and RT-PCR for N and P mRNA was analyzed. […]
The ability of the 4F* to reprogram BJ cells was analyzed. […]

| Compound | effect on expression of measles proteins (GFP) (BJ cells [1]) | effect of added small molecules on reprogramming efficiency of MV four factor vectors (BJ cells [2]) |
| --- | --- | --- |
| polyI:C | does not affect the expression of measles proteins |  |
| O=C(NOC[C@H](O)CO)c1ccc(F)c(F)c1Nc1ccc(I)cc1F [PD0325901] |  | improved efficiency |
| O=C(NCc1ccccc1)c1csc(Nc2ccncn2)n1 [Thiazovivin] |  | improved efficiency |
| NC(=O)c1ccc(-c2nc(-c3ccc4c(c3)OCO4)c(-c3ccccn3)[nH]2)cc1 [SB431542] |  | improved efficiency |
